Data published in US20140031432A1, “TREATMENT OF MITOCHONDRIAL DISEASES WITH VITAMIN K” (Ampere Life Sciences, Inc., priority 2010, published 2014).

Key:
Type in all cases: cell-based
[1] = system: human dermal fibroblasts from Parkinson's disease patients; assay: Rescue of fibroblasts from Parkinson's disease patients from oxidative stress (Example D); conditions: Fibroblast, Parkinson's disease cells (Coriell AG20439), screen as in Example A (BSO stress), read-out: protection against PD, EC50
Method: [The source words this procedure for another cell line and reports this cell line under the same test.] (§1) Test samples and solvent controls were tested for their ability to rescue FRDA fibroblasts stressed by addition of L-buthionine-(S,R)-sulfoximine (BSO), as described in Jauslin et al., Hum. Mol. Genet. 11(24):3055 (2002), Jauslin et al., FASEB J. 17:1972-4 (2003), and International Patent Application WO 2004/003565. […] This specific BSO-mediated cell death can be prevented by administration of antioxidants or molecules involved in the antioxidant pathway, such as alpha-tocopherol, selenium, or small molecule glutathione peroxidase mimetics. However, antioxidants differ in their potency, i.e. the concentration at which they are able to rescue BSO-stressed FRDA fibroblasts.
(§2) MEM (a medium enriched in amino acids and vitamins, catalog no. 1-31F24-I) and Medium 199 (M199, catalog no. 1-21F22-I) with Earle's Balanced Salts, without phenol red, were purchased from Bioconcept. Fetal Calf Serum was obtained from PAA Laboratories. Basic fibroblast growth factor and epidermal growth factor were purchased from PeproTech. […]
(§3) 100 μl of PBS containing 1.2 μM Calcein AM were then added to each well. […] After that time the PBS was discarded, the plate gently tapped on a paper towel and fluorescence (excitation/emission wavelengths of 485 nm and 525 nm, respectively) was read on a Gemini fluorescence reader. […]

[2] = system: human dermal fibroblasts from Huntington's patients; assay: Rescue of fibroblasts from Huntington's patients from oxidative stress (Example B); conditions: Fibroblast, Huntington's cells (Coriell GM 04281), screen as in Example A (BSO stress), read-out: protection against Huntington's, EC50
Method: [The source words this procedure for another cell line and reports this cell line under the same test.] as §1
(§4) MEM (a medium enriched in amino acids and vitamins, catalog no. 1-31F24-I) and Medium 199 (M199, catalog no. 1-21F22-I) with Earle's Balanced Salts, without phenol red, were purchased from Bioconcept. Fetal Calf Serum was obtained from PAA Laboratories. Basic fibroblast growth factor and epidermal growth factor were purchased from PeproTech. Penicillin-streptomycin-glutamine mix, L-buthionine (S,R)-sulfoximine, and insulin from bovine pancreas were purchased from Sigma. Calcein AM was purchased from Molecular Probes. Cell culture medium was made by combining 125 ml M199 EBS, 50 ml Fetal Calf Serum, 100 U/ml penicillin, 100 μg/ml streptomycin, 2 mM glutamine, 10 μg/ml insulin, 10 ng/ml EGF, and 10 ng/ml bFGF; MEM EBS was added to make the volume up to 500 ml. A 10 mM BSO solution was prepared by dissolving 444 mg BSO in 200 ml of medium with subsequent filter-sterilization. During the course of the experiments, this solution was stored at +4° C. The cells were obtained from the Coriell Cell Repositories (Camden, N.J.; repository number GM04078) and grown in 10 cm tissue culture plates. Every third day, they were split at a 1:3 ratio. […]
as §3

[3] = system: human dermal fibroblasts from LHON patients; assay: Rescue of fibroblasts from LHON patients from oxidative stress (Example C); conditions: Fibroblast, LHON cells (Coriell GM03858), screen as in Example A (BSO stress), read-out: protection against LHON, EC50
Method: [The source words this procedure for another cell line and reports this cell line under the same test.] as §1, §2, §3

[4] = system: Human dermal fibroblasts from Friedreich's ataxia patients; assay: Rescue of BSO-stressed FRDA fibroblasts (Example A); conditions: FRDA fibroblasts (Coriell GM04078), 1 mM BSO, 48 h, Calcein AM viability, read-out: protection against FRDA, EC50
Method: as §1, §4, §3

| Structure (SMILES) | EC50 [1] | EC50 [2] | EC50 [3] | EC50 [4] |
| --- | --- | --- | --- | --- |
| CC1=CC(=O)c2ccccc2C1=O [2-methylnaphthalene-1,4-dione] | < 500 nM | < 500 nM | < 300 nM | < 1000 nM |
| CC(C)=CCCC(C)=CCC1=C(C)C(=O)c2ccccc2C1=O [2-(3,7-dimethylocta-2,6-dien-1-yl)-3-methylnaphthalene-1,4-dione] | < 500 nM | < 500 nM | < 300 nM | < 1000 nM |
| CC(C)=CCC/C(C)=C/CC/C(C)=C/CC/C(C)=C/CC1=C(C)C(=O)c2ccccc2C1=O [2-methyl-3-[3,7,11,15-tetramethylhexadeca-2,6,10,14-tetraen-1-yl]naphthoquinone] | – | < 500 nM | – | < 1000 nM |
